Source: publication PMC12703733, “Probing Guanidino Pendant or Bridged Groups in Cyclic Antimicrobial Peptides Derived from Temporin L: A Strategy to Improve Efficacy against Gram-Negative Bacteria” (Journal of Medicinal Chemistry, 2025)
Converted amounts (≈) assume the structure as drawn. Bridge positions count the residues as written; N and C are the ends. Square brackets hold non-standard residues; d marks the D form. Peptide text beside a SMILES is read from it.

Columns and labels:
A. baumannii ATCC 19606 = assay: microbe, parasite or virus in culture; type: cell-based; conditions: ATCC 19606
Method in brief: (§1)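 MICs were taken as three identical readings from four independent experiments, using mid-log cells at 2 × 10^6 cell/mL in Mueller Hinton medium incubated at 37 °C.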

B. megaterium BM11 = assay: microbe, parasite or virus in culture; type: cell-based; conditions: BM11
Method in brief: as §1

E. coli ATCC 25922 = assay: microbe, parasite or virus in culture; type: cell-based; conditions: ATCC 25922
Method in brief: as §1

E. coli D21 = assay: microbe, parasite or virus in culture; type: cell-based; conditions: D21
Method in brief: as §1

E. faecalis ATCC 29212 = assay: microbe, parasite or virus in culture; type: cell-based; conditions: ATCC 29212
Method in brief: as §1

P. aeruginosa ATCC 27853 = assay: microbe, parasite or virus in culture; type: cell-based; conditions: ATCC 27853
Method in brief: as §1

P. aeruginosa PAO1 = assay: microbe, parasite or virus in culture; type: cell-based; conditions: PAO1
Method in brief: as §1

S. agalactiae ATCC 27591 = assay: microbe, parasite or virus in culture; type: cell-based; conditions: ATCC 27591
Method in brief: as §1

S. aureus ATCC 25923 = assay: microbe, parasite or virus in culture; type: cell-based; conditions: ATCC 25923
Method in brief: as §1

[1] = system: S. epidermidis ATCC 12228; assay: microbe, parasite or virus in culture; type: cell-based; conditions: ATCC 12228
Method in brief: as §1

all bacteria tested = assay: MIC panel, geometric mean over all strains; type: cell-based; conditions: geometric mean of the MICs against all bacteria tested
Procedure: (§2) The antimicrobial efficacy of the TLcyc analogues was assessed against a representative panel of Gram-positive and Gram-negative bacterial strains, by determining their minimal inhibitory concentrations (MIC), as summarized in Table . To provide an integrated measure of antimicrobial potency, we calculated the geometric mean (GM) of MIC values across all strains (GMall), as well as separately for Gram-positive (GMGram+) and Gram-negative (GMGram–) bacteria.
(§3) Bacterial strains used in this study were the Gram-positive S. aureus ATCC 25923, S. epidermidis ATCC 12228, B. megaterium BM11, S. agalactiae ATCC 27591, E. faecalis ATCC 29212 and the Gram-negative E. coli ATCC 25922, P. aeruginosa ATCC 27853, A. baumannii ATCC 19606, E. coli D21 and P. aeruginosa PAO1. […] Bacterial cells in the mid log phase were diluted in Muller Hinton (MH) at a concentration of 2 × 10^6 cell/mL. Aliquots of 50 μL of this bacterial suspension were added to 50 μL of MH containing serial 2-fold dilutions of the peptides (from 100 to 0.19 μM) in the wells a 96-well plate. Ciprofloxacin was used as antibiotic control. The plate was then incubated at 37 °C. MICs were obtained from three identical readings of four independent experiments.

[2] = system: Gram-positive bacteria tested; assay: MIC panel, Gram-positive strains (geometric mean, range); type: cell-based; conditions: geometric mean of the MICs against Gram-positive bacteria tested
Procedure: as §2, §3

[3] = system: Gram-negative bacteria tested; assay: MIC panel, Gram-negative strains (geometric mean); type: cell-based; conditions: geometric mean of the MICs against Gram-negative bacteria tested
Procedure: as §2, §3

[4] = system: S. aureus ATCC 25923 biofilm; assay: Activity against preformed biofilm (MTT); type: cell-based; conditions: concentrations below 25 μM
Procedure: (§4) The antibiofilm activity was evaluated as elsewhere reported. Bacteria grew at 37 °C until they reached an optical density (OD) of 0.8 (λ = 590 nm). The culture was diluted to a cell density of 1 × 10^6 colony-forming units (CFUs)/mL and aliquots of 100 μL of this suspension were dispensed into the wells of a 96-multiwell plate. After biofilm formation (incubation time = 20 h at 37 °C), all the planktonic cells were removed, and the wells were washed twice with PBS (150 μL). After washing, the wells were filled with PBS supplemented with different 2-fold serial dilutions of the tested peptides (from 50 to 1.56 μM). After peptide treatment (incubation time = 2 h at 37 °C) the wells were washed with PBS twice and filled with 150 μL of MTT (0.5 mg/mL) to evaluate biofilm viability after 4 h incubation at 37 °C. The reaction was then stopped by adding SDS (final concentration equal to 5% v/v). A microplate reader (Infinite M200; Tecan, Salzburg, Austria) was used to measure the absorbance of each well at 570 nm and the percentage of biofilm viability was calculated relative to the untreated samples.

[5] = type: cell-based, P. aeruginosa
Procedure: as §4

[6] = Circular dichroism in water (BeStSel); type: physicochemical; conditions: predicted from CD spectra in H2O using BeStSel
Procedure: The secondary structure of each peptide was studied in solution and in small unilamellar vesicles (SUVs) mimicking Gram-positive and Gram-negative membranes performing CD analysis. The CD spectrum for each peptide in solution was recorded at 150 μM, using the quartz cells of 0.1 cm path length with a Jasco J-1500 CD Spectrometer at 25 °C. SUVs at the concentration of 150 μM (P/L = 1) and […] (P/L = 0.4) were prepared as reported: the lipid film was hydrated with water for 1h and then sonicated for 30 min. CD spectra were recorded at the peptide/lipid ratio of 1:1 both in the presence with SUVs mimicking Gram-positive and Gram-negative membranes. CD spectra were recorded at 25 °C on a in a 0.1 cm quartz cell using three consecutive scans from 260 to 190 nm, 3 nm bandwidth, a time constant of 16 s, and a scan rate of 10 nm/min.

CC[C@H](C)[C@H](NC(=O)[C@H](CCCNC(=N)N)NC(=O)[C@H]1CCC(=O)NCCCC[C@H](NC(=O)[C@H](Cc2ccccc2)NC(=O)[C@H](Cc2c[nH]c3ccccc23)NC(=O)[C@@H]2CCCN2C(=O)[C@@H](NC(=O)[C@@H](N)Cc2ccccc2)C(C)C)C(=O)N[C@@H](CCCCN)C(=O)N[C@@H](Cc2ccccc2)C(=O)N[C@H](CC(C)C)C(=O)N1)C(=O)N[C@@H](CC(C)C)C(N)=O [Peptide 2, FVPWF[KKFle]RIL] (H-FVPWFKKF[dL][dE]RIL-NH2; lactam 6-10)
MIC (A. baumannii ATCC 19606): 6.25 µM (≈ 10.7 µg/mL) | MIC (B. megaterium BM11): 0.78 µM (≈ 1.33 µg/mL) | MIC (E. coli ATCC 25922): 6.25 µM (≈ 10.7 µg/mL) | MIC (E. coli D21): 12.5 µM (≈ 21.3 µg/mL) | MIC (E. faecalis ATCC 29212): 25 µM (≈ 42.6 µg/mL) | MIC (P. aeruginosa ATCC 27853): 50 µM (≈ 85.2 µg/mL) | MIC (P. aeruginosa PAO1): 50 µM (≈ 85.2 µg/mL) | MIC (S. agalactiae ATCC 27591): 3.12 µM (≈ 5.32 µg/mL) | MIC (S. aureus ATCC 25923): 12.5 µM (≈ 21.3 µg/mL) | MIC [1]: 3.12 µM (≈ 5.32 µg/mL) | geometric mean GMall (all bacteria tested): 8.81 µM | geometric mean GMGram+ [2]: 4.72 µM | geometric mean GMGram– [3]: 16.4 µM | antibiofilm activity (in words) [4]: weaker or no activity | viability [5]: > 70% | Content in water (%) random [6]: 55% | Content in water (%) α-helix [6]: 7% | Content in water (%) β-strand [6]: 38%
